Reference: patent publication US7432087B2, “Method for preparing (2S, 3R, 4S)-4-hydroxyisoleucine and analogues thereof” (Centre National de la Recherche Scientifque, priority 2002, dated 2008)

Legend:
[1] = background statement with literature references; cited from earlier work

melting point	Structure (SMILES)	insulinotropic activity [1]
193 to 194 °C (dec.)	C[C@@H]([C@H](C)O)[C@@H](NCc1ccccc1)C(=O)O [(2R)-N-Bn-1, (2R,3R,4S)-N-benzyl-4-hydroxyisoleucine]	
	C[C@@H]([C@H](C)O)[C@H](N)C(=O)O [compound 1, (2S,3R,4S)-4-hydroxyisoleucine]	possesses an insulinotropic activity
